Tests used:
Assay type in all cases: biochemical
recombinant hSSAO = recombinant hSSAO (Homo sapiens (Human), UniProt Q16853); experiment: SSAO Activity Assay (MAO-Glo assay kit); details: 40 μM substrate, 30 mins pre-incubation
Procedure, shortened: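 Substrate was 4 μM in MAO-B buffer for hMAO-B and 40 μM in MAO-A buffer for hSSAO and hMAO-A. Each enzyme first saw compound (0.1% DMSO vehicle) for 30 min at room temperature.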

recombinant hMAO-B = recombinant hMAO-B (Homo sapiens (Human), UniProt P27338); experiment: MAO-B activity assay (MAO-Glo assay kit); details: 4 μM substrate, 30 mins pre-incubation
recombinant hMAO-B, sequence (P27338 whole entry, canonical isoform): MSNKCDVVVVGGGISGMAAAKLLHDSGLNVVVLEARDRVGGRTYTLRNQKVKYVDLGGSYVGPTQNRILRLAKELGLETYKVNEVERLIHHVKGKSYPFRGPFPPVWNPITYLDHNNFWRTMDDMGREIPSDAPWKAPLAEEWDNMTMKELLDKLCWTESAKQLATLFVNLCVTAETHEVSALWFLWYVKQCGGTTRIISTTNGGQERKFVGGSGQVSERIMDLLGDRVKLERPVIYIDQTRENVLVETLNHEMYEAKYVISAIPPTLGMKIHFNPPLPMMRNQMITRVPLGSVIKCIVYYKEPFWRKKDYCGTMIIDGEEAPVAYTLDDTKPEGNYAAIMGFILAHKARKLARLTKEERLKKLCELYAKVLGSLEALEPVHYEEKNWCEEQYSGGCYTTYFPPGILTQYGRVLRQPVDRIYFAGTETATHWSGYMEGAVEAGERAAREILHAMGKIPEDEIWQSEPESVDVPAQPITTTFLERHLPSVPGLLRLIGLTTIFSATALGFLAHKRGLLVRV
Procedure: (§1) The biological activities of the compounds of the present application can be assessed with methods and assays known in the art. For example, the potency of the compounds of the present application can be evaluated with an SSAO Activity Assay. Briefly, compounds of the present application can be applied to recombinant hSSAO, hMAO-A, and hMAO-B isoforms and the amine oxidase activity of the enzymes are measured after the addition and subsequent oxidation of the luminogenic substrate (e.g., with the MAO-Glo assay kit from Promega). The IC50 can be calculated, for example, by fitting the dose response curve using a 4-parameter non-linear regression routine.
(§2) Amine oxidase activity of recombinant hSSAO, hMAO-A, and hMAO-B isoforms are measured using the MAO-Glo assay kit (Promega, V1402). Ten nL test compounds (with DMSO as vehicle, 0.1% v/v for hSSAO, hMAO-A and hMAO-B) were added into assay plates by Echo, and pre-incubated with 5 μL of enzyme for 30 mins at room temperature before the addition of 5 μL of luminogenic substrate. The substrate concentration is 40 μM for human recombinant SSAO, 40 μM for human recombinant MAO-A, and 4 μM for human recombinant MAO-B. The hSSAO and hMAO-A assays were conducted in the MAO-A reaction buffer in the kit, and the MAO-B assay was conducted in the MAO-B reaction buffer. Oxidation of the substrate was conducted for 1 hr, before the addition of detecting reagent according the manufacture's protocol. The IC50 value of the tested compounds was calculated by fitting the dose response curve using a 4-parameter non-linear regression routine.

recombinant hMAO-A = recombinant hMAO-A (Homo sapiens (Human), UniProt P21397); experiment: MAO-A activity assay (MAO-Glo assay kit); details: 40 μM substrate, 30 mins pre-incubation
recombinant hMAO-A, sequence (P21397 whole entry): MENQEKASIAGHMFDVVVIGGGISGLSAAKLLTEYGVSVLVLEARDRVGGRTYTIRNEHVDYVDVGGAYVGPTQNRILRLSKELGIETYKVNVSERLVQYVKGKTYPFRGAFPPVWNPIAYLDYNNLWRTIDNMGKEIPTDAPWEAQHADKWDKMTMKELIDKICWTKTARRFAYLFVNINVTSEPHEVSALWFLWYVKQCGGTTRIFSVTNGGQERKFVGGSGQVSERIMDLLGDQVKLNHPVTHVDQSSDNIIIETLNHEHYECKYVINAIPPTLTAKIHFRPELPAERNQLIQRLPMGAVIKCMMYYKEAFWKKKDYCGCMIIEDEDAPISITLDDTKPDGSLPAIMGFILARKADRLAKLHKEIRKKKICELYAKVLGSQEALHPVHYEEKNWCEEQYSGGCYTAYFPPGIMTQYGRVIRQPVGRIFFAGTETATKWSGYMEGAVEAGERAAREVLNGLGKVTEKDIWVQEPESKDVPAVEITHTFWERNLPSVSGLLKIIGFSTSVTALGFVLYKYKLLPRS
Procedure: as §1, §2

recombinant hSSAO, sequence (Q16853 whole entry): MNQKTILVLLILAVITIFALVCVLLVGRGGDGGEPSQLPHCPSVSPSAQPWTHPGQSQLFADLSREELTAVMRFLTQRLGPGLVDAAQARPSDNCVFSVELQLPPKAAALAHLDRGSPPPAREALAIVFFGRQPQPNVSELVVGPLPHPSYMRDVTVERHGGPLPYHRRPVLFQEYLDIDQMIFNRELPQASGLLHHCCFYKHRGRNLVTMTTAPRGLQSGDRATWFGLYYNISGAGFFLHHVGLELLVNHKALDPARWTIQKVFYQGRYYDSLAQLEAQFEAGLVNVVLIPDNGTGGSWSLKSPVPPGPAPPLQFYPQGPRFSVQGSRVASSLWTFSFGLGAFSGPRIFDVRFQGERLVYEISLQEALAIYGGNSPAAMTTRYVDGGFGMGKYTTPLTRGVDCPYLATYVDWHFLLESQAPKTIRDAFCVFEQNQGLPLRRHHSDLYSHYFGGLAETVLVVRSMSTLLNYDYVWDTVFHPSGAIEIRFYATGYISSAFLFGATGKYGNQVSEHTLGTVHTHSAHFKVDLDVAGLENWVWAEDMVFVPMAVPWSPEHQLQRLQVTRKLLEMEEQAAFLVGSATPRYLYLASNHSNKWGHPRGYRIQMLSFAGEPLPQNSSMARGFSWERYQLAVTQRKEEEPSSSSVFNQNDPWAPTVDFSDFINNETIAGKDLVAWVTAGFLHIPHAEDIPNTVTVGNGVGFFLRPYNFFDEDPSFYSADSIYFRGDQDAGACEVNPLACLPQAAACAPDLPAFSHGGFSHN

| IC50 (recombinant hSSAO) | IC50 (recombinant hMAO-B) | IC50 (recombinant hMAO-A) | Structure (SMILES) |
| --- | --- | --- | --- |
| < 0.02 µM | > 30 µM | > 30 µM | CC1(NC(=O)C23CCC(CS(=O)(=O)c4ccc(OC/C(=C/F)CN)cc4)(CC2)CC3)CC1 [Compound 67, (E)-4-(((4-((2-(aminomethyl)-3-fluoroallyl)oxy)phenyl)sulfonyl)methyl)-N-(1-methylcyclopropyl)bicyclo[2.2.2] octane-1-carboxamide] |
| < 0.02 µM | > 30 µM | > 30 µM | CC(C)OCCNC(=O)C12CCC(CS(=O)(=O)c3ccc(OC/C(=C/F)CN)cc3)(CC1)CC2 [Compound 68, (E)-4-(((4-((2-(aminomethyl)-3-fluoroallyl)oxy)phenyl)sulfonyl)methyl)-N-(2-isopropoxyethyl)bicyclo[2.2.2] octane-1-carboxamide] |
| < 0.02 µM | 10 to 30 µM | > 30 µM | NC/C(=C\F)COc1ccc(S(=O)(=O)CC23CCC(C(=O)NC4CC(F)(F)C4)(CC2)CC3)cc1 [Compound 69, (E)-4-(((4-((2-(aminomethyl)-3-fluoroallyl)oxy)phenyl)sulfonyl)methyl)-N-(3,3-difluorocyclobutyl)bicyclo[2.2.2] octane-1-carboxamide] |
| < 0.02 µM | 10 to 30 µM | > 30 µM | NC/C(=C\F)COc1ccc(S(=O)(=O)CC23CCC(C(=O)N4CCC4)(CC2)CC3)cc1 [Compound 71] |
| < 0.02 µM | > 30 µM | > 30 µM | NC/C(=C\F)COc1ccc(S(=O)(=O)CC23CCC(C(=O)N4CC(F)(F)C4)(CC2)CC3)cc1 [Compound 72] |
| 0.02 to 0.1 µM | > 30 µM | > 30 µM | CN(C(=O)C12CCC(CS(=O)(=O)c3ccc(OC/C(=C/F)CN)cc3)(CC1)CC2)C1CC1 [Compound 73, (E)-4-(((4-((2-(aminomethyl)-3-fluoroallyl)oxy)phenyl)sulfonyl)methyl)-N-cyclopropyl-N-methylbicyclo[2.2.2]octane-1-carboxamide] |
| 0.02 to 0.1 µM | > 30 µM | > 30 µM | CCN(CC)C(=O)C12CCC(CS(=O)(=O)c3ccc(OC/C(=C/F)CN)cc3)(CC1)CC2 [Compound 74, (E)-4-(((4-((2-(aminomethyl)-3-fluoroallyl)oxy)phenyl)sulfonyl)methyl)-N,N-diethylbicyclo[2.2.2] octane-1-carboxamide] |
| < 0.02 µM | 10 to 30 µM | > 30 µM | NC/C(=C\F)COc1ccc(S(=O)(=O)CC23CCC(C(=O)NC4CC4)(CC2)CC3)cc1 [Compound 75, (E)-4-(((4-((2-(aminomethyl)-3-fluoroallyl)oxy)phenyl)sulfonyl)methyl)-N-cyclopropylbicyclo[2.2.2]octane-1-carboxamide] |
| < 0.02 µM | > 30 µM | > 30 µM | CC(C)(C)C(=O)NC12CC(CS(=O)(=O)c3ccc(OC/C(=C/F)CN)cc3)(C1)C2 [Compound 77, (E)-N-(3-(((4-((2-(aminomethyl)-3-fluoroallyl)oxy)phenyl)sulfonyl)methyl)bicyclo[1.1.1]pentan-1-yl)pivalamide] |
| < 0.02 µM | 10 to 30 µM | > 30 µM | CC(C)C(=O)NC12CCC(CS(=O)(=O)c3ccc(OC/C(=C/F)CN)cc3)(CC1)CC2 [Compound 80, (E)-N-(4-(((4-((2-(aminomethyl)-3-fluoroallyl)oxy)phenyl)sulfonyl)methyl)bicyclo[2.2.2]octan-1-yl)isobutyramide] |
| < 0.02 µM | > 30 µM | > 30 µM | NC/C(=C\F)COc1ccc(S(=O)(=O)CC23CCC(NS(=O)(=O)C4CC4)(CC2)CC3)cc1 [Compound 81, (E)-N-(4-(((4-((2-(aminomethyl)-3-fluoroallyl)oxy)phenyl)sulfonyl)methyl)bicyclo[2.2.2]octan-1-yl)cyclopropanesulfonamide] |
| < 0.02 µM | 10 to 30 µM | > 30 µM | NC/C(=C\F)COc1ccc(S(=O)(=O)CC23CCC(NC(=O)C4CC4(F)F)(CC2)CC3)cc1 (stereo not drawn) [Compound 84, (E)-N-(4-(((4-((2-(aminomethyl)-3-fluoroallyl)oxy)phenyl)sulfonyl)methyl)bicyclo[2.2.2]octan-1-yl)-2,2-difluorocyclopropane-1-carboxamide] |
| 0.02 to 0.1 µM | 10 to 30 µM | > 30 µM | NC/C(=C\F)COc1ccc(S(=O)(=O)CC23CCC(NC(=O)C4(C(F)(F)F)CC4)(CC2)CC3)cc1 [Compound 85, (E)-N-(4-(((4-((2-(aminomethyl)-3-fluoroallyl)oxy)phenyl)sulfonyl)methyl)bicyclo[2.2.2]octan-1-yl)-1-(trifluoromethyl)cyclopropane-1-carboxamide] |
| < 0.02 µM | < 10 µM | > 30 µM | NC/C(=C\F)COc1ccc(S(=O)(=O)CC23CCC(NC(=O)C4(F)CC4)(CC2)CC3)cc1 [Compound 86, (E)-N-(4-(((4-((2-(aminomethyl)-3-fluoroallyl)oxy)phenyl)sulfonyl)methyl)bicyclo[2.2.2]octan-1-yl)-1-fluorocyclopropane-1-carboxamide] |
| < 0.02 µM | 10 to 30 µM | > 30 µM | CC(C)(C)C(=O)NC12CCC(CS(=O)(=O)c3ccc(OC/C(=C/F)CN)cc3)(CC1)CC2 [Compound 90, (E)-N-(4-(((4-((2-(aminomethyl)-3-fluoroallyl)oxy)phenyl)sulfonyl)methyl)bicyclo[2.2.2]octan-1-yl)pivalamide] |
| < 0.02 µM | 10 to 30 µM | > 30 µM | NC/C(=C\F)COc1ccc(S(=O)(=O)CC23CCC(NC(=O)C4CCC4)(CC2)CC3)cc1 [Compound 92, (E)-N-(4-(((4-((2-(aminomethyl)-3-fluoroallyl)oxy)phenyl)sulfonyl)methyl)bicyclo[2.2.2]octan-1-yl)cyclobutanecarboxamide] |
| < 0.02 µM | < 10 µM | > 30 µM | NC/C(=C\F)COc1ccc(S(=O)(=O)CCN2CCCCC2=O)cc1 [Compound 107, (E)-1-(2-((4-((2-(aminomethyl)-3-fluoroallyl)oxy)phenyl)sulfonyl)ethyl) piperidin-2-one] |
| 0.02 to 0.1 µM | 10 to 30 µM | > 30 µM | CC(CN1C(=O)CCC1(C)C)CS(=O)(=O)c1ccc(OC/C(=C/F)CN)cc1 (stereo not drawn) [Compound 111, (E)-1-(3-((4-((2-(aminomethyl)-3-fluoroallyl)oxy)phenyl)sulfonyl)-2-methylpropyl)-5,5-dimethylpyrrolidin-2-one] |
| 0.02 to 0.1 µM | > 30 µM | > 30 µM | CC(CN1CCOCC1)CS(=O)(=O)c1ccc(OC/C(=C/F)CN)cc1F (stereo not drawn) [Compound 114, (E)-3-fluoro-2-((3-fluoro-4-((2-methyl-3-morpholinopropyl)sulfonyl)phenoxy)methyl)prop-2-en-1-amine] |
| 0.02 to 0.1 µM | > 30 µM | > 30 µM | NC/C(=C\F)COc1ccc(S(=O)(=O)CC2(CN3CCOCC3)CC2)cc1 [Compound 116, (E)-3-fluoro-2-((4-(((1-(morpholinomethyl)cyclopropyl)methyl)sulfonyl)phenoxy)methyl) prop-2-en-1-amine] |
| 0.02 to 0.1 µM | < 10 µM | < 10 µM | NC/C(=C\F)COc1ccc(S(=O)(=O)CN2Cc3ccccc3C2=O)cc1 [Compound 118, (E)-2-(((4-((2-(aminomethyl)-3-fluoroallyl)oxy)phenyl)sulfonyl)methyl)isoindolin-1-one] |
| 0.02 to 0.1 µM | > 30 µM | 10 to 30 µM | NC/C(=C\F)COc1ccc(S(=O)(=O)CN2C(=O)CCc3ccccc32)cc1 [Compound 119, (E)-1-(((4-((2-(aminomethyl)-3-fluoroallyl)oxy)phenyl)sulfonyl)methyl)-3,4-dihydroquinolin-2(1H)-one] |
| 0.02 to 0.1 µM | > 30 µM | > 30 µM | NC/C(=C\F)COc1ccc(S(=O)(=O)CN2C(=O)C3(CC3)c3ccccc32)cc1 [Compound 120, (E)-1′-(((4-((2-(aminomethyl)-3-fluoroallyl)oxy)phenyl)sulfonyl)methyl)spiro[cyclopropane-1,3′-indolin]-2′one] |
| 0.02 to 0.1 µM | < 10 µM | > 30 µM | CC(C)C(=O)N(C)CS(=O)(=O)c1ccc(OC/C(=C/F)CN)cc1 [Compound 122, (E)-N-(((4-((2-(aminomethyl)-3-fluoroallyl)oxy)phenyl)sulfonyl)methyl)-N-methylisobutyramide] |
| 0.02 to 0.1 µM | > 30 µM | > 30 µM | CC1(C)CCC(=O)N1CS(=O)(=O)c1ccc(OC/C(=C/F)CN)cc1 [Compound 123, (E)-1-(((4-((2-(aminomethyl)-3-fluoroallyl)oxy)phenyl)sulfonyl)methyl)-5,5-dimethylpyrrolidin-2-one] |
| 0.02 to 0.1 µM | > 30 µM | > 30 µM | CC1(C)CCC(=O)N1CS(=O)(=O)c1ccc(OC/C(=C/F)CN)cc1Cl [Compound 124, (E)-1-(((4-((2-(aminomethyl)-3-fluoroallyl)oxy)-2-chlorophenyl)sulfonyl)methyl)-5,5-dimethylpyrrolidin-2-one] |
